Test results from publication PMC11178805, “Ligand-based design of [^18F]OXD-2314 for PET imaging in non-Alzheimer’s disease tauopathies” (Nature Communications, 2024).

Key:
[1] = molecular target: T1, 4R-tau aggregates in PSP tissue (Homo sapiens, UniProt P10636); assay: Competition binding vs [^3H]OXD-2115 in PSP tissue homogenates; conditions: vs [^3H]OXD-2115, PSP tissue homogenates, n = 1
T1 construct: tissue Neurodegenerative Disease Brain Bank at UCSF
Experimental: (§1) Fresh frozen, autopsy-confirmed human PD anterior cingulate cortex brain tissue blocks (1 cm^3) were obtained from Dr. Thomas Beach at Banner/Sun Health AZ with funding from the Michael J. Fox Foundation and contained frequent α-synuclein aggregates and no other detectable aggregated amyloid species. The frozen tissue blocks were prepared for the binding assays as previously described[47],[48], except that equal quantities of the homogenates of three AD brains (AD1-AD3, Table S1) were pooled, as were homogenates from three PSP brains (PSP1-PSP3), three CBD brains (CBD1-CBD3), three Pick’s brains (PiD1-PiD3), and 4 PD brains (PD1-PD4) in order to help minimize the inter-subject variability within the different neuropathological groups. Individual subcortical brain tissues from a PSP subject (PSP4) and a CBD subject (CBD4), as well as with the middle frontal cortex of a control subject, were prepared for the binding assays as previously described[47],[48].
(§2) The equilibrium inhibition constant (Ki) values of the unlabeled compounds were determined versus tritium-labeled radioligands using published methods.

[2] = molecular target: T2, 4R-tau aggregates in CBD tissue (Homo sapiens, UniProt P10636); assay: Competition binding vs [^3H]OXD-2115 in CBD tissue; conditions: vs [^3H]OXD-2115, CBD tissue, n = 1
T2 construct: tissue Neurodegenerative Disease Brain Bank at UCSF; host or cells: human CBD brain, middle frontal gyrus (pool of three) or putamen (one subject)
Experimental: as §1, §2

[3] = Dynamic PET imaging with [^18F]OXD-2314 in rhesus macaque (baseline and displacement); format: in vivo
Experimental: Dynamic PET imaging was performed in a rhesus macaque (macaca mulatta) monkey following the injection of [^18F]OXD-2314 at baseline (104.9 MBq, n = 1) and was repeated in a second [^18F]OXD-2314 study (115.8 MBq, n = 1) where a displacing dose of unlabeled OXD-2314 (0.5 mg/kg) was administered 10 min after [^18F]OXD-2314 injection to verify the absence of specific binding in NHP brain. Venous blood samples were drawn to characterize the metabolic fate of [^18F]OXD-2314 in the macaque. Dynamic [^18F]OXD-2314 PET imaging was also performed in a male (106.6 MBq, n = 1) and a female (115.8 MBq, n = 1) baboon (papio anubis), and venous blood samples were drawn in both baboons to characterize potential effects of sex on radiometabolism. Bilateral regions of interest were defined on 5–8 contiguous axial image planes for the lateral temporal cerebral cortex, cerebellum, striatum, and whole brain, which were used to sample dynamic [^18F]OXD-2314 PET images to determine the time-varying radioactivity concentration expressed in SUV units. [^18F]OXD-2314 readily entered macaque brain (whole brain peak ~2.2 SUV at ~2 min) and distributed uniformly throughout cortical and subcortical grey matter regions (Fig. 5A). […] Radiometabolite analysis of macaque venous blood identified only one, polar radiometabolite, which increased from 37% at 10 min to 77% at 90 min post-injection and was not likely brain penetrant (Figs. S19, S20).
NHP imaging studies in a male (13 kg) macaca mulata monkey and male (25.7 kg) and female (14.2 kg) papio anubis baboons were carried out in accordance with the guidelines set forth by the Institutional Animal Care and Use Committee at the University of Pittsburgh. Additional details regarding the maintenance of an active environmental enrichment program for the housed NHPs are described in Supplemental Information. Dynamic [^18F]OXD-2314 PET imaging of the brains of the isoflurane anesthetized NHPs was performed using a Siemens Biograph mCT Flow 64-4 R PET/CT scanner ([…], maximum intrinsic spatial resolution of 4.3 mm FWHM[53]. Following a low-dose CT scan for attenuation correction of PET emission data, [^18F]OXD-2314 was injected intravenously and emission data were acquired in list-mode for a period of 90 min. Emission data were binned into a dynamic series of 32 frames (20 sec-10 min) and reconstructed using filtered back projection with Fourier rebinning (FORE + FBP) with standard corrections applied that included attenuation, scatter, electronics dead-time, and physical decay.

T1 sequence (P10636 1-441 isoform P10636-8): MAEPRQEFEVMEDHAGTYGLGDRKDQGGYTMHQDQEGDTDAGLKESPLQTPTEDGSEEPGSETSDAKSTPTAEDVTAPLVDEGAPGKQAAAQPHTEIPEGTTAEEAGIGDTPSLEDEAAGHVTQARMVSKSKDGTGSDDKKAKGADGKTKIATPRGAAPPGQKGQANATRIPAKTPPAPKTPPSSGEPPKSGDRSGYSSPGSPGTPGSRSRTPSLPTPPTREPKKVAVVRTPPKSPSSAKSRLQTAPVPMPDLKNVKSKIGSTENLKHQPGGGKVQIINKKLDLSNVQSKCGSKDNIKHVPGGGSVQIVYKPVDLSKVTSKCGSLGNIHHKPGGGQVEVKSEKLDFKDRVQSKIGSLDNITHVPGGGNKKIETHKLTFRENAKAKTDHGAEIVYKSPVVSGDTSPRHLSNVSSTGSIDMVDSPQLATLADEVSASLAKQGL
T2 sequence (P10636 1-441 isoform P10636-8): as above

Row | Ki [1] [nM] | Ki [2] [nM] | Compound | initial brain uptake ([3]; NHP) [SUV] | ratio initial maximum to late minimum brain radioactivity ([3]; NHP) | 2:90 min radioactivity concentration ratio ([3]; macaque whole brain) | time of whole brain peak ([3]; macaque, baseline) | whole brain clearance half-time ([3]; macaque, baseline) | whole brain peak uptake ([3]; macaque, baseline, n = 1)
1 | 4.8 | 4.4 | COC1CCCN(c2ccc(-c3cc4cc(O)ccc4[nH]3)c(F)n2)C1 (centres unmarked) [OXD-2314, 2-(2-fluoro-6-(3-methoxypiperidin-1-yl)pyridin-3-yl)-1H-indol-5-ol] |  |  |  |  |  | 
2 |  |  | CO[C@H]1CCCN(c2ccc(-c3cc4cc(O)ccc4[nH]3)c([18F])n2)C1 [[^18F]OXD-2314] | > 2 | ~ 4 | 3.9 | ~ 2 min | ~ 22 min | ~ 2.2 SUV
